How the values were obtained:
Type in all cases: cell-based, human
AdMSCs [1] = assay: Cell cycle analysis by propidium iodide staining and flow cytometry; settings: 24 h after treatment; for percentage of cells in G0/G1 phase: non-treated control 82%, paracetamol 4.4 mM, diclofenac 10 μM, metamizole 10 μM, ketoprofen 50 μM, prednisolone 0.1 μM; for percentage of cells in G2/M cell cycle phase: vs non-treated control
Procedure: FIG. 2. Cell cycle analysis of control and AIDs-treated AdMSCs. AIDs-treated and control AdMSCs were stained with propidium iodide (PI) 24 h after treatments and analyzed using flow cytometry by BD Accuri C6.
The percentage of cells in G0/1 phase was lower in the cultures treated with metamizole (Analgin™) (65%) and paracetamol (71%), whereas the percentage of cells in G2/M cell cycle phase was increased in these cultures (FIG. 2).

LPS-stimulated AdMSCs = assay: RT-qPCR of inflammatory gene mRNA in LPS-stimulated AIDs-treated AdMSCs; settings: 24 hours exposure, vs LPS-treated cells
Procedure: FIG. 4. Relative mRNA expression of inflammatory genes in LPS-stimulated and AIDs-treated for 24 h AdMSCs represented as heat map. Expression levels were measured in triplicates by RT-qPCR and normalized with GAPDH mRNA expression levels. Data from LPS-stimulated AIDs-treated AdMSCs were calculated as a relative fold difference compared to LPS-treated cells and converted to the log scale. The quantitative changes in gene expression are represented by shading: darker shade indicates up-regulation, whereas lighter shade indicates down-regulation. Expression data were visualized using GENE-E software.
FIG. 6. Heat map of the expression profile of inflammatory genes in LPS-stimulated and AIDs-treated AdMSCs. Inflammatory genes mRNA expression levels of LPS-stimulated and AIDs-treated for 48 h (A) and 72 h (B) AdMSCs were calculated as a fold difference compared to LPS-treated AdMSCs and represented as heat maps. Expression levels of inflammatory gene mRNAs were measured in triplicates by RT-qPCR, normalized with GAPDH mRNA levels and converted to the log scale. Positive values (darker shade) indicate higher expression, and negative values (lighter shade) lower expression relatively to the control LPS-treated AdMSCs.
Effects of AIDs on mRNA expression of inflammatory cytokines in AdMSCs were analyzed using RT-qPCR technique. Analyses results were visualized as a heat map graph using GENE-E platform (FIG. 4). Short-term treatment of AdMSCs by AIDs affected the expression of inflammatory cytokines. […] Expression of pro-inflammatory cytokines CCL2, CCL3, TNF, IL6, ILIA and ILIB was suppressed by ketoprofen and metamizole (Analgin™) treatments.
Effects of repeated AIDs treatments (48 and 72 h) on mRNA expression of cytokines in AdMSCs were analyzed using RT-qPCR technique. Differential expression of cytokine genes is represented as a heat map in FIG. 6. […] Upon exposure to various drugs, complex expression pattern of pro- and anti-inflammatory factors were observed. […] However, the stable induced expression of anti-inflammatory factors (IL4, TNFAIP6, IDO1) was not observed.

AdMSCs [2] = assay: ELISA of secreted inflammatory factors in culture media of AdMSCs; settings: for secreted IL6 concentration / secreted CCL2 concentration / secreted IL-1RN concentration / secreted CXCL8 concentration: AIDs-treated 24 h; for secreted IL6 concentration: control 40 ± 2; for secreted CCL2 concentration: control 96 ± 3.2; for secreted IL-1RN concentration: control 2.3 ± 0.03; for secreted CXCL8 concentration: control 277 ± 12.7
AdMSCs [3] = assay: RT-qPCR of angiogenic marker mRNA in AIDs-treated AdMSCs; settings: 24 h treatment, relative to untreated AdMSCs, normalized with GAPDH
Procedure: VEGFA, HGF, bFGF and TEK mRNA expression levels in AdMSCs treated with AIDs for 24 h were measured in triplicates by RT-qPCR and normalized with GAPDH mRNA expression levels. Data from AIDs-treated cells were calculated relatively to control untreated AdMSCs and results are represented in a log scale. Positive values indicated increased and negative values decreased mRNA levels compared to control untreated cells.
Numerous soluble factors produced by MSCs are involved in the regulation of angiogenesis and neovascularisation in vivo (Estrada et al., 2009). […] The effect of the AIDs on expression of angiogenic factors in AdMSCs was analyzed. Different AIDs affected the expression of angiogenic factors differently either stimulating or suppressing their expression.

AdMSCs [4] = assay: ELISA of secreted inflammatory factors in culture media of AdMSCs; settings: for effect on CCL2 level / effect on CXCL8 level / effect on IL6 level: LPS-stimulated AdMSC cultures, 24 h; for secreted IL-1RN concentration / secreted IL6 concentration / secreted CXCL8 concentration / secreted CCL2 concentration: LPS-stimulated, AIDs-treated 24 h; for secreted IL-1RN concentration: control + LPS 61 ± 18; for secreted IL6 concentration: control + LPS 210 ± 22; for secreted CXCL8 concentration: control + LPS 2373 ± 109; for secreted CCL2 concentration: control + LPS 461 ± 19.9; for IL-1RN level in culture media over time / IL6 level in culture media over time: LPS-treated cultures, single treatment; for IL-1RN level in culture media over time: serum-deficient, 24, 48 and 72 h; for IL6 level in culture media over time: serum-deficient, 24, 48 and 72 h (prednisolone: at 72 h)
Procedure: FIG. 5. Changes of inflammatory factors in culture media. Secreted IL6, CXCL8, CCL2 and IL1RN levels were measured from the conditional media of control, LPS-stimulated, and LPS-stimulated and paracetamol or prednisolone-treated AdMSCs by ELISA at 24, 48 and 72 h and represented as normalized to control 24 h probe.
To mimic inflammatory conditions, AdMSCs were exposed to lipopolysaccharide (LPS) prior to AIDs treatments. […] Then, LPS-treated AdMSCs were exposed to AIDs to study their effect on cytokines in inflammatory conditions.

AdMSCs [5] = assay: WST-1 metabolic activity assay of AdMSCs treated with anti-inflammatory drugs; settings: first 24 hours; metamizole 10 μM
Procedure: AdMSCs metabolic activity was measured at 1, 2, 3 and 5 days after the treatments.
During the first 48 hours, all analyzed AIDs stimulated the metabolic activity of AdMSCs.

[6] = standard culture conditions, no LPS
[7] = LPS-treated cultures, single treatment, serum-deficient, 24, 48 and 72 h

SMILES | percentage of cells in G0/G1 phase (AdMSCs [1]) [%] | TGFβ1 and TGFβ3 mRNA expression (LPS-stimulated AdMSCs) | TGFβ2 mRNA expression (LPS-stimulated AdMSCs) | secreted IL6 concentration (AdMSCs [2]; no LPS) [pg/mL] | secreted CCL2 concentration (AdMSCs [2]; no LPS) [pg/mL] | effect on synthesis and secretion of immunomodulatory factors (AdMSCs [2]; [6]) | HGF mRNA expression (AdMSCs [3]) | TEK mRNA expression (AdMSCs [3]) | VEGFA mRNA expression (AdMSCs [3]) | bFGF mRNA expression (AdMSCs [3]) | effect on CCL2 level (AdMSCs [4]) | effect on CXCL8 level (AdMSCs [4]) | effect on IL6 level (AdMSCs [4]) | secreted IL-1RN concentration (AdMSCs [4]) [pg/mL] | secreted IL6 concentration (AdMSCs [4]) [pg/mL] | secreted CXCL8 concentration (AdMSCs [4]) [pg/mL] | expression of pro-inflammatory cytokines CCL2, CCL3, TNF, IL6, ILIA and ILIB (mRNA) (LPS-stimulated AdMSCs) | secreted IL-1RN concentration (AdMSCs [2]; no LPS) [pg/mL] | secreted CXCL8 concentration (AdMSCs [2]; no LPS) [pg/mL] | secreted CCL2 concentration (AdMSCs [4]) [pg/mL] | further results
O=C(O)Cc1ccccc1Nc1c(Cl)cccc1Cl [diclofenac] | 81 | suppressed | stimulated | 50 ± 1 | 64 ± 8.4 | minor effect | no effect | no effect | no effect | no effect | no effect | stimulated | stimulated | 17 ± 2 | 390 ± 4 | 2807 ± 361 | – | – | – | – | –
CC(C(=O)O)c1cccc(C(=O)c2ccccc2)c1 (centres unmarked) [ketoprofen] | 80 | – | – | 10 ± 1 | 165 ± 23.4 | minor effect | up-regulation | up-regulation | up-regulation | up-regulation | no effect | stimulated | stimulated | 12 ± 0.5 | 440 ± 143 | 2509 ± 68 | suppressed | 0 | 301 ± 0.3 | 451 ± 31.8 | –
Cc1c(N(C)CS(=O)(=O)O)c(=O)n(-c2ccccc2)n1C [metamizole (Analgin™), metamizole] | 65 | – | – | 30 ± 1 | 109 ± 3.2 | minor effect | up-regulation | up-regulation | up-regulation | up-regulation | Inhibitory effect | – | – | 12 ± 1 | 180 ± 29 | 1816 ± 121 | suppressed | 3.9 ± 0.03 | 341 ± 4.7 | 313 ± 43.9 | percentage of cells in G2/M cell cycle phase (AdMSCs [1]): increased; effect on IL1RN expression (AdMSCs [2]; LPS-stimulated AdMSC cultures, 24 h): Inhibitory effect; cellular metabolism (WST-1 metabolic activity) (AdMSCs [5]): significantly stimulated
CC(=O)Nc1ccc(O)cc1 [paracetamol] | 71 | suppressed | stimulated | 0 | 8 ± 0.4 | minor effect | inhibited | strongly suppressed | inhibited | induced | – | significantly reduced | significantly reduced | 33 ± 9 | 90 ± 14 | 623 ± 41 | – | 11.0 ± 0.65 | 11 ± 0.1 | 270 ± 29.9 | percentage of cells in G2/M cell cycle phase (AdMSCs [1]): increased; CCL2 level in culture media over time (AdMSCs [2]; [7]): lowered; CXCL8 level in culture media over time (AdMSCs [2]; [7]): no significant effects; CCL2 level in culture media compared to untreated cells (AdMSCs [2]; [6]): significant reduction; CXCL8/IL8 level in culture media compared to untreated cells (AdMSCs [2]; [6]): significant reduction; IL6 level in culture media compared to untreated cells (AdMSCs [2]; [6]): significant reduction; IL-1RN level in culture media over time (AdMSCs [4]): no significant effects; IL6 level in culture media over time (AdMSCs [4]): no significant effects
C[C@]12C=CC(=O)C=C1CC[C@@H]1[C@@H]2[C@@H](O)C[C@@]2(C)[C@H]1CC[C@]2(O)C(=O)CO [prednisolone] | 77 | – | – | 30 ± 2 | 100 ± 12.2 | minor effect | inhibited | opposite effect | inhibited | opposite effect | – | significantly reduced | significantly reduced | 33 ± 2 | 50 ± 12 | 402 ± 51 | – | 7.3 ± 0.20 | 35 ± 0.1 | 314 ± 23.2 | CCL2 level in culture media over time (AdMSCs [2]; [7]): significantly stimulated; IL-1RN level in culture media over time (AdMSCs [4]): inhibited; IL6 level in culture media over time (AdMSCs [4]): moderately induced
